The source of these data is patent publication US5521208A, “Compositions and methods for the treatment of the metabolically impaired and for improved compliance” (Alcon Laboratories, Inc., priority 1993, dated 1996).

The structures appear in SMILES notation. Read-outs that look alike come from different tables or passages of the source.

A short description of data set [1]: Plasma pharmacokinetics in rats following a 2 mg/kg intravenous bolus injection. The class given is in vivo, male Sprague-Dawley rats. The conditions noted are these: 2 mg/kg i.v. bolus; for AUC(0-inf): linear trapezoidal summation with extrapolation to infinity; for clearance: read-out: CLT (total plasma clearance) (converted); for half-life / k el: 2 mg/kg; for concentration at 1 h / concentration at 4 h / concentration at 8 h / concentration at 24 h / concentration at 31 h / concentration at 48 h / concentration at 72 h / concentration at 96 h / concentration at 120 h / concentration at 144 h / concentration at 168 h / concentration at 216 h: Mean ± SD (N = 3); for concentration at 96 h / concentration at 120 h / concentration at 144 h / concentration at 168 h / concentration at 216 h: ND = Not Detected (lower limit of detection 2 ng/mL). As for the experimental part:
The pharmacokinetic properties of A(±) of Example 1 were compared with those of each enantiomer, A(+) and A(-) of Example 1. The comparison was made in rats following an intravenous bolus injection.
The test articles were formulated in a 0.1N sodium carbonate solution to yield a 2 mg/mL solution. A total of 126 male Sprague-Dawley rats weighing 200-300 g were divided into three groups of 42 rats each. The animals were offered food and water ad libitum except fasting overnight prior to and for four hours after dosing. Rats in each group received a single 2 mg/kg intravenous dose of A(+) or A(-) or A(±) via the tail vein. At the following times postdose, three rats from each group were anesthetized by carbon dioxide inhalation and plasma samples were collected from each animal: 0, 1, 4, 8, 24, 31, 48, 72, 96, 120, 144, 168, 216, and 336 hours. Plasma concentrations of each drug were determined by gas chromatographic-electron capture (GC-EC) methods known to those skilled in the art, with a lower limit of detection of 2 ng/mL. See, e.g., Park, Y. H., et al., Xenobiotica 22:543-550 (1992). The values of the elimination rate constants, α,β and γ, were obtained by linear regression analysis of the log-linear portion of the plasma concentration-time curve. These constants correspond to the initial distribution, disposition and terminal elimination phases, respectively. The α and β values were obtained by the method of residuals. The corresponding half-lives (t1/2α, t1/2β and t1/2γ) were calculated by dividing 0.693 by each respective parameter. The area under the plasma concentration versus time curve from 0 to infinity (AUC..infin.) was calculated by linear trapezoidal summation with extrapolation to infinity. Total plasma clearance CLT was calculated as dose divided by AUC..infin.. The area under the first moment curve (AUMC) is the area under the curve observed for the product of time and concentration, versus time. Apparent volume of distribution at steady state (Vss) was calculated by the product of dose and AUMC, divided by (AUC..infin.)^2.

Data set [2] has as its target T1, Rat Aldose Reductase (AR) (Rattus norvegicus, UniProt P07943).
T1 construct: rat lens supernatant fraction; from tissue; host or cells: rat lens, supernatant fraction
The experiment in a line: In vitro inhibition of aldose reductase (rat lens supernatant fraction). The class given is biochemical. Conditions: for difference in activity in vitro between A(+) and A(-): Rat AR and Rat L-HDH, conclusion in words; for IC50: ± SEM, n = 3-4, rat lens supernatant, pH 7.5, room temperature. The text has this: The in vitro inhibiting activity of racemic 2,7-difluoro-4-methoxyspiro[9H-fluorene-9,4'-imidazolidine]-2',5'-dione, prepared in accordance with U.S. Pat. No. 4,864,028 (hereafter referred to as "A(±)") was compared to that of the R(+) and S(-) enantiomers thereof, prepared in accordance with U.S. Pat. No. 5,151,544 (referred to hereafter as "A(+)" and "A(-)", respectively), with respect to aldose reductase and L-hexonate dehydrogenase.
The test methods used for measuring in vitro inhibition activities of these compounds toward aldose reductase and L-hexonate dehydrogenase are known. The method utilized for measuring the inhibition of aldose reductase is described in B. W. Griffin and L. G. McNatt, "Characterization of the Reduction of 3-Acetylpyridine Adenine Dinucleotide Phosphate by Benzyl Alcohol Catalyzed by Aldose Reductase", Arch. Biochem, Biophys. 246:75-81 (1986). The method utilized for measuring the inhibition of L-hexonate dehydrogenase is described in M. T. DuPriest, B. W. Griffin, D. Kuzmich, and L. G. McNatt "Spiro[fluoreneisothiazolidin]one Dioxides: New Aldose Reductase and L-Hexonate Dehydrogenase Inhibitors", J. Med Chem. 34:3229-3234 (1991). Both methods are based on detection of the rate of increase of fluorescence of NADPH (reduced form of nicotinamide adenine dinucleotide phosphate) or an analog, formed as a product of the enzymatic reaction, i.e., oxidation of an appropriate alcohol substrate by the respective oxidized pyridine species. In the assay for aldose reductase, the reaction mixture contained 50 mmol/L potassium phosphate buffer (pH 7.5), 12 mmol/L benzyl alcohol, 12 μmol/L oxidized 3-acetylpyridine adenine dinucleotide phosphate, and rat lens supernatant fraction (50-100 μg total protein) in a total volume of 1.0 mL. The assay for L-hexonate dehydrogenase consisted of the following components: 50 mmol/L potassium phosphate buffer (pH 7.5), 20 mmol/L L-gulonate, 25 μmol/L NADP+, and rat kidney supernatant fraction (50-100 µg total protein) in a total volume of 1.0 mL. The enzyme-dependent rate of formation of the reduced pyridine nucleotide was monitored with a fluorescence spectrophotometer set at excitation/emission wavelengths of 365/480 nm for the NADP+analog and 365/465 nm for NADP+; slit widths were routinely set at 10 nm. Reactions were carried out at room temperature; blank rates with one component of the reaction omitted were typically less than 10% of the rate of the complete reaction.
The IC50 values (inhibitor concentration producing 50% inhibition of the reaction under the standard assay conditions described) were computed by linearregression analysis of the linear portion of the dose-response curve for each inhibitor.

Where [3] appears, read: rat, plasma, iv, read-out: t1/2α (initial distribution phase half-life) (converted).
[4] abbreviates: rat, plasma, iv, read-out: t1/2β (disposition phase half-life) (converted).
Where [5] appears, read: rat, plasma, iv, read-out: α (elimination rate constant, initial distribution phase) (converted).
Where [6] appears, read: rat, plasma, iv, read-out: β (elimination rate constant, disposition phase) (converted).
Where [7] appears, read: rat, plasma, iv, ND = Not Detected, read-out: t1/2γ (terminal elimination phase half-life) (converted).
The mark [8] stands for this setting: rat, plasma, iv, ND = Not Detected, read-out: γ (elimination rate constant, terminal elimination phase) (converted).

`COc1cc(F)cc2c1-c1ccc(F)cc1[C@]21NC(=O)NC1=O` [A(-), 2,7-difluoro-4-methoxyspiro[9H-fluorene-9,4'-imidazolidine]-2',5'-dione]: in data set [1], the AUMC is on record as 402 μg/hour^2/mL and the “elimination profile (in words)” value was “lacks a slow terminal elimination phase”. In addition, the “volume of distribution (in words)” value in data set [1] (compared with A(+)) is recorded as “significantly lower volume of distribution”. Besides, in data set [1] (rat, plasma, iv), the area under the curve AUC(0-inf) (as a rule, the area under the concentration-time curve extrapolated to infinity) was 63000 ng·h/mL; the clearance – broadly, the volume of plasma or blood freed of the substance per unit of time – was 0.528 mL/min/kg; the concentration at 1 h was determined as 7330 ± 220 ng/mL; the concentration at 4 h turned out to be 3800 ± 975 ng/mL. In data set [1] (rat, plasma, iv), this compound gave a concentration at 8 h of 2780 ± 449 ng/mL, a concentration at 24 h of 140 ± 17 ng/mL, a concentration at 31 h of 127 ± 36 ng/mL and a concentration at 48 h of 23 ± 8 ng/mL. In data set [1] (rat, plasma, iv), the concentration at 72 h was 4 ± 3 ng/mL. In addition, the half-life in data set [1] (setting [3]) was 258 min. In addition, the half-life in data set [1] (setting [4]) was 510 min. In addition, in data set [1] (setting [5]), the k el was 4.53e-05 s⁻¹. Also, the k el in data set [1] (setting [6]) was 2.25e-05 s⁻¹. Also, in data set [2], the “difference in activity in vitro between A(+) and A(-)” value is recorded as “no significant difference in activity in vitro”; the 50% inhibitory concentration (IC50) (in general, the midpoint of a concentration-inhibition curve) worked out at 5.9 ± 0.3 µM.
Take `COc1cc(F)cc2c1-c1ccc(F)cc1C21NC(=O)NC1=O` (racemic) [A(±), 2,7-difluoro-4-methoxyspiro[9H-fluorene-9,4'-imidazolidine]-2',5'-dione]: in data set [1], the AUMC is listed as 854 μg/hour^2/mL and the “elimination profile (in words)” value was “kinetic profile similar to that of A(+) with the presence of a persistent elimination phase”. Further, in data set [1] (rat, plasma, iv), the AUC(0-inf) is 60400 ng·h/mL, the clearance was 0.552 mL/min/kg, the concentration at 1 h stood at 5080 ± 441 ng/mL and the concentration at 4 h worked out at 3590 ± 441 ng/mL. Besides, in data set [1] (rat, plasma, iv), the concentration at 8 h turned out to be 2420 ± 5440 ng/mL, the concentration at 24 h amounted to 352 ± 34 ng/mL, the concentration at 31 h was determined as 194 ± 22 ng/mL and the concentration at 48 h was 108 ± 27 ng/mL. In data set [1] (rat, plasma, iv), this compound displayed a concentration at 72 h of 3 ± 4 ng/mL, a concentration at 96 h of 17 ± 4 ng/mL, a concentration at 120 h of 13 ± 3 ng/mL and a concentration at 144 h of 11 ± 2 ng/mL. In data set [1] (rat, plasma, iv), this compound showed a concentration at 168 h of 5 ± 2 ng/mL and a concentration at 216 h of 2 ± 1 ng/mL. For the same compound, the Vd in data set [1] (rat, plasma, iv, read-out: Vss (apparent volume of distribution at steady state)) came out at 0.47 L/kg. In data set [1] (setting [7]), the half-life was 2440 min. In addition, in data set [1] (setting [8]), the k el was 4.72e-06 s⁻¹. In data set [1] (setting [3]), the half-life is 348 min. Moreover, in data set [1] (setting [4]), the half-life is 480 min. The k el in data set [1] (setting [5]) was 3.28e-05 s⁻¹. Further, the k el in data set [1] (setting [6]) is 2.36e-05 s⁻¹. Also, half-maximal inhibition in data set [2] (IC50) required 5.7 ± 1.7 µM.
Consider `COc1cc(F)cc2c1-c1ccc(F)cc1[C@@]21NC(=O)NC1=O` [A(+), 2,7-difluoro-4-methoxyspiro[9H-fluorene-9,4'-imidazolidine]-2',5'-dione], for which, in data set [1], the AUMC was found to be 965 μg/hour^2/mL; the “elimination profile (in words)” value was “triexponential elimination profile with an initial distribution phase, a disposition phase due to metabolism, and a slow terminal elimination phase”. In addition, in data set [1] (rat, plasma, iv), the area under the curve AUC(0-inf) is 54400 ng·h/mL, the clearance was 0.612 mL/min/kg, the concentration at 1 h was 2970 ± 679 ng/mL and the concentration at 4 h came to 2360 ± 456 ng/mL. In data set [1] (rat, plasma, iv), this compound displayed a concentration at 8 h of 2360 ± 281 ng/mL, a concentration at 24 h of 486 ± 170 ng/mL, a concentration at 31 h of 382 ± 49 ng/mL and a concentration at 48 h of 162 ± 32 ng/mL. In data set [1] (rat, plasma, iv), the concentration at 72 h turned out to be 67 ± 15 ng/mL, the concentration at 96 h amounted to 33 ± 11 ng/mL, the concentration at 120 h came to 11 ± 4 ng/mL and the concentration at 144 h is 9 ± 1 ng/mL. In data set [1] (rat, plasma, iv), this compound had a concentration at 168 h of 5 ± 3 ng/mL and a concentration at 216 h of 2 ± 1 ng/mL. Besides, the half-life in data set [1] (setting [7]) was 2240 min. Moreover, the k el in data set [1] (setting [8]) is 5e-06 s⁻¹. In data set [1] (setting [3]), the half-life was 186 min. Moreover, in data set [1] (setting [4]), the half-life was 870 min. The k el in data set [1] (setting [5]) is 6.17e-05 s⁻¹. In addition, the k el in data set [1] (setting [6]) is 1.33e-05 s⁻¹. Also, in data set [2], the “difference in activity in vitro between A(+) and A(-)” value is listed as “no significant difference in activity in vitro”; the IC50 was found to be 5.5 ± 0.2 µM.
